Assay results reported in US20240101576A1, “HETEROCYCLIC INHIBITORS OF EGFR AND/OR HER2, FOR USE IN THE TREATMENT OF CANCER” (Scorpion Therapeutics, Inc., priority 2020, published 2024).

Experiments:
Type in all cases: cell-based
[1] = target: T1, EGFR WT (Ba/F3 cells) (Homo sapiens, UniProt P00533); test: Inhibitor activity on EGFR-dependent cell growth (CellTiter-Glo, 72 h), Ba/F3 EGFR WT; settings: read-out: BaF3 WT IC50
T1 construct: expressed in transfected cells; host or cells: Ba/F3 (murine pro-B cells), retroviral transduction, puromycin selection, maintained with EGF
Outline: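 This growth assay used Ba/F3 cells that depend on wild-type EGFR and are kept in EGF without IL3. Compounds were made up as 10 mM DMSO stocks and diluted 3-fold over 10 points. 120 nL went onto 600 cells/well. After 72 hours, 40 μL CellTiter-Glo was added and luminescence read on EnVision after 30 min.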

[2] = target: T2, EGFR exon 20 NPG Ins D770_N771 (Ba/F3 cells) (Homo sapiens, UniProt P00533, INS770NPG); test: Inhibitor activity on EGFR-dependent cell growth (CellTiter-Glo, 72 h), Ba/F3 EGFR exon 20 NPG Ins; settings: read-out: BaF3 NPG IC50
T2 construct: expressed in transfected cells; host or cells: Ba/F3 (murine pro-B cells), retroviral transduction, puromycin selection, IL3-independent pool
Outline: (§1)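 IC50s derive from a sigmoidal dose–response fit of CellTiter-Glo signal. The signal was normalised between […]-treated cells and cell-free medium. Ba/F3 mutant-EGFR cells, seeded at 400–800/well depending on the line, had 72 h of exposure to a 10-point, 3-fold compound series.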

[3] = target: T2, EGFR exon 20 NPG Ins D770_N771 (Ba/F3 cells); test: Inhibitor activity on EGFR phosphorylation (pEGFR AlphaLISA, 2 h), Ba/F3 EGFR exon 20 NPG Ins
Text: Example B. Inhibitor Activity on EGFR phosphorylation (pEGFR)
EGFR mutant Ba/F3 cells were generated by transduction with retrovirus containing vectors expressing EGFR L858R, EGFR exon 19del, EGFR L858R/C797S, EGFR exon 20 NPG Ins D770_N771, EGFR exon 20 ASV Ins V769_D770, or EGFR exon 20 SVD Ins D770_N771 genes along with a puromycin selection marker. Transduced cells are selected with puromycin for 7 days and are then be transferred into culture media without Interleukin 3 (IL3). Surviving cells are confirmed to express EGFR by Western blot and maintained as a pool. CUTO14 cells were obtained from Dr. Robert C. Doebele at the University of Colorado. The IC50 date are included in Table 6 and Table 7.
1.1 Cells are harvested from flask into cell culture medium and the cell number counted.
1.2 Cells are diluted with culture medium to the desired density and 40 μL of cell suspension is added into each well of 384-well cell culture plate and the seeding density is 50K cells/well (Ba/F3) or 12.5K cells/well (CUTO14).
2 Compound Preparation and Treatment
2.1 Test compounds are dissolved to 10 mM in a DMSO stock solution. 45 μL of stock solution is transferred to a 384 polypropylene plate (pp-plate). Perform 3-fold, 10-point dilution via transferring 15 μL compound into 30 μL DMSO using a TECAN (EVO200) liquid handler.
2.2 Spin plates at room temperature at 1,000 RPM for 1 minute.
2.3 Transfer 5 nL of diluted compound from compound source plate into the cell plate.
2.4 After compound treatment for 2 hours, perform pEGFR detection by AlphaLISA for compound treatment plates as described in “Detection” section.
3 Detection by pEGFR AlphaLISA (Perkin-Elmer)
3.1 Plates are removed from incubators and equilibrated at room temperature for 10 minutes, and media was removed
3.2 10 μL of lysis buffer is added and plates shaken at 600 rpm for 1 hr.
3.3 Prepare acceptor mix just before use and dispense 5 μL of acceptor mix to all the wells. Shake 350 rpm for Ihr in the dark
3.4 Prepare donor mix under low light conditions prior to use. Dispense 5 μL of donor mix to all the wells. Mix well on the shaker, seal and wrap in aluminum foil and incubate 1.5 hrs at room temperature in the dark
3.5 Transfer 18.5 μL mixture to OptiPlate 384, and read using an Envision. The IC50 date were included in Table 6 and Table 7.

[4] = target: T3, EGFR exon 20 ASV Ins V769_D770 (Ba/F3 cells) (Homo sapiens, UniProt P00533, INS769ASV); test: Inhibitor activity on EGFR phosphorylation (pEGFR AlphaLISA, 2 h), Ba/F3 EGFR exon 20 ASV Ins; settings: EGFR phosphorylation, AlphaLISA, 2 hours; read-out: ASV IC50 (pEGFR)
T3 construct: expressed in transfected cells; host or cells: Ba/F3 (murine pro-B cells), retroviral transduction, puromycin selection, IL3-independent pool
Outline: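 pEGFR AlphaLISA readout after 2 h compound exposure; IC50 from 10-point, 3-fold dilutions (10 mM DMSO stock). Ba/F3 mutant lines grown without IL3, 50K cells/well; CUTO14 12.5K cells/well.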

[5] = target: T4, EGFR exon 20 FQEA Ins A763_V764 (Ba/F3 cells) (Homo sapiens, UniProt P00533, INS763FQEA); test: Inhibitor activity on EGFR-dependent cell growth (CellTiter-Glo, 72 h), Ba/F3 EGFR exon 20 FQEA Ins; settings: read-out: BaF3 FQEA IC50
T4 construct: expressed in transfected cells; host or cells: Ba/F3 (murine pro-B cells), retroviral transduction, puromycin selection, IL3-independent pool
Outline: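 For each mutant line, growth depends on EGFR signalling in the absence of IL3. Density per well: 400 for L858R, 600 for the C797S double mutant, 800 for exon 19del and FQEA. Ten threefold dilutions were applied for 72 h. %Inhibition = 100×(DMSO − sample)/(DMSO − medium blank).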

[6] = target: T5, EGFR exon 20 SVD Ins D770_N771 (Ba/F3 cells) (Homo sapiens, UniProt P00533, INS770SVD); test: Inhibitor activity on EGFR-dependent cell growth (CellTiter-Glo, 72 h), Ba/F3 EGFR exon 20 SVD Ins; settings: read-out: BaF3 SVD IC50
T5 construct: expressed in transfected cells; host or cells: Ba/F3 (murine pro-B cells), retroviral transduction, puromycin selection, IL3-independent pool
Outline: as §1

[7] = target: T3, EGFR exon 20 ASV Ins V769_D770 (Ba/F3 cells); test: Inhibitor activity on EGFR-dependent cell growth (CellTiter-Glo, 72 h), Ba/F3 EGFR exon 20 ASV Ins; settings: read-out: BaF3 ASV IC50
Outline: as §1

T4 sequence (P00533 with tags, fused parts or gaps INS763FQEA): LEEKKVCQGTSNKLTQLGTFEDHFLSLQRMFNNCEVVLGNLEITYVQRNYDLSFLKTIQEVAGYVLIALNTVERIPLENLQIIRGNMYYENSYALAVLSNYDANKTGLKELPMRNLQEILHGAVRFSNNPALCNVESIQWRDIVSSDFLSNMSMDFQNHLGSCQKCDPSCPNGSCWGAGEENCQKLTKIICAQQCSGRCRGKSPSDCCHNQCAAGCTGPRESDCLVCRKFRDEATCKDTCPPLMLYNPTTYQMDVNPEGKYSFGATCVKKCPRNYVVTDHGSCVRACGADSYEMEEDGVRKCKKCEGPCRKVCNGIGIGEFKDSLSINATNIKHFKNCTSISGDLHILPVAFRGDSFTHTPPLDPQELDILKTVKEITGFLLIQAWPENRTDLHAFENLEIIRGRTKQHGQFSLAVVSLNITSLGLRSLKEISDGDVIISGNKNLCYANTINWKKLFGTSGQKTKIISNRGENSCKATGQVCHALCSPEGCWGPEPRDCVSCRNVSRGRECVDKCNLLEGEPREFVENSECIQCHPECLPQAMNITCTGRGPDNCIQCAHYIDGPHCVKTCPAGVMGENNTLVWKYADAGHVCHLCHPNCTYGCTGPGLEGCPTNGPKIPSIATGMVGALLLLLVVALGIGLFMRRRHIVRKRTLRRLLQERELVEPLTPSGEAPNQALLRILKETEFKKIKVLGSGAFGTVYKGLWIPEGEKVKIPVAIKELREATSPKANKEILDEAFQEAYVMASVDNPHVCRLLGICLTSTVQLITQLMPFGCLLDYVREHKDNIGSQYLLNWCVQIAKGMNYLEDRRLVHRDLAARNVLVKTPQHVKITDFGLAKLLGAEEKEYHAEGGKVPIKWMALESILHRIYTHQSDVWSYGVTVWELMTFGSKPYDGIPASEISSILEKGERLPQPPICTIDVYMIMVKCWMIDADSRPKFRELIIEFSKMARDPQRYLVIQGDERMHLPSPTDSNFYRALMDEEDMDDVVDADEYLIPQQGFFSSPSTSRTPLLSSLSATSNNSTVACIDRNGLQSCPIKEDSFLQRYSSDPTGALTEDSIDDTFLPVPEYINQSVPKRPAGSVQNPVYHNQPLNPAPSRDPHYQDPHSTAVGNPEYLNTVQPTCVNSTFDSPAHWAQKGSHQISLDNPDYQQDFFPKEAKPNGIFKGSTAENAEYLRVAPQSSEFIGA
T1 sequence (P00533 25-1210): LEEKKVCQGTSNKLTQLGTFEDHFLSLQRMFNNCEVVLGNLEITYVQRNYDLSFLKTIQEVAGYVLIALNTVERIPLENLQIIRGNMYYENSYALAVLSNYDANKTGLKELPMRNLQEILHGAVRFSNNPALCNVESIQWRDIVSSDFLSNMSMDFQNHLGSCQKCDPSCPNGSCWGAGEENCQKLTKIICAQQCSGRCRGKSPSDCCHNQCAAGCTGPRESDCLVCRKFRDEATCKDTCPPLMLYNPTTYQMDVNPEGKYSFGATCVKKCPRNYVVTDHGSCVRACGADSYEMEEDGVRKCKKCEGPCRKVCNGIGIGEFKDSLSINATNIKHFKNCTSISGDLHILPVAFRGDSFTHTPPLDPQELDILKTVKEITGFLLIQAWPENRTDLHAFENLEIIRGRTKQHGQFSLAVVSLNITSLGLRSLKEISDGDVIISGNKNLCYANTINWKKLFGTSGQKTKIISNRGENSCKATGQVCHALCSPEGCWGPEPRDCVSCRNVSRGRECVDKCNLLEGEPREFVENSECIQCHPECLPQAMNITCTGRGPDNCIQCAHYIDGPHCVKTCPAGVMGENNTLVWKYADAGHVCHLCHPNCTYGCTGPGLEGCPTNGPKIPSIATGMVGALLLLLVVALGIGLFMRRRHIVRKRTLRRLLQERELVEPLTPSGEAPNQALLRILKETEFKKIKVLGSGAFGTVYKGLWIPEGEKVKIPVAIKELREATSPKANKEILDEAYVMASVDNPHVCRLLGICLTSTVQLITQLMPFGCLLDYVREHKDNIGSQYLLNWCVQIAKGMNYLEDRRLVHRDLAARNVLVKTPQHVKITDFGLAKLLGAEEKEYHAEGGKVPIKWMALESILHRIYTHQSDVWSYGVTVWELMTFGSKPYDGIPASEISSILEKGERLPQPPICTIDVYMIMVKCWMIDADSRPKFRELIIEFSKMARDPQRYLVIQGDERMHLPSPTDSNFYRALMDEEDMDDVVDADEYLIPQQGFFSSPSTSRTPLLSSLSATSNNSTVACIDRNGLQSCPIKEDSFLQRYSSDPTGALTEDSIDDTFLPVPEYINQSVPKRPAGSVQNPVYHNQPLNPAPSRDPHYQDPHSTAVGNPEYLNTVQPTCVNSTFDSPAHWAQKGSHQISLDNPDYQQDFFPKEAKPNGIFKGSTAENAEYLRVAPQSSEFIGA
T2 sequence (P00533 with tags, fused parts or gaps INS770NPG): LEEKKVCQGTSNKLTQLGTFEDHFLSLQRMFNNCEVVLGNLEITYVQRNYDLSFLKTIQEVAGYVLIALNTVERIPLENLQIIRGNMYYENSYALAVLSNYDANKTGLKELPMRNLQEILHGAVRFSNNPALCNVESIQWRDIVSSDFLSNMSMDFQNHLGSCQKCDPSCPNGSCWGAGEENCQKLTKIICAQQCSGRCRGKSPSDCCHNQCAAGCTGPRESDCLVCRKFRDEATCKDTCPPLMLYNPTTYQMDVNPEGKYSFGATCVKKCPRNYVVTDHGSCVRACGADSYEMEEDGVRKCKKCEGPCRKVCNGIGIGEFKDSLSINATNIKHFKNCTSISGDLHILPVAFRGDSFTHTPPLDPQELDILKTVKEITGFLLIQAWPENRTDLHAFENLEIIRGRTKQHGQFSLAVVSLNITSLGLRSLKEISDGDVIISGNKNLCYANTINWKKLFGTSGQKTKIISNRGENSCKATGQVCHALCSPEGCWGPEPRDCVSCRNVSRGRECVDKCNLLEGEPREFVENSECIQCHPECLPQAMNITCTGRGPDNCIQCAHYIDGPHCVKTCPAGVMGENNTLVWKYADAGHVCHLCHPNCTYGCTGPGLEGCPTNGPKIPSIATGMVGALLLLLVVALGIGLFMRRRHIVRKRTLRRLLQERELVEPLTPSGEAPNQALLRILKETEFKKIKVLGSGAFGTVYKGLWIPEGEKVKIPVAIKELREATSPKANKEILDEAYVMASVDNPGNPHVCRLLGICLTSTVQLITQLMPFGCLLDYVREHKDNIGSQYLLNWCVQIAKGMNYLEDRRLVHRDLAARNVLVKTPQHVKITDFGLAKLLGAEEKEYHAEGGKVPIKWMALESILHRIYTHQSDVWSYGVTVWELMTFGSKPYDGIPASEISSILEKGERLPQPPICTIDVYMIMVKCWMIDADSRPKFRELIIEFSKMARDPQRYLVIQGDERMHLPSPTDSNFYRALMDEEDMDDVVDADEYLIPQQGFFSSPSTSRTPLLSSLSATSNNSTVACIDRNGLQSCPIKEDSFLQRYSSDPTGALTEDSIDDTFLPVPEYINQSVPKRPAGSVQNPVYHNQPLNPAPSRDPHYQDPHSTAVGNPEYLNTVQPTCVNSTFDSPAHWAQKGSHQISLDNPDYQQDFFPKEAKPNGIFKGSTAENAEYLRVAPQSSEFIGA
T3 sequence (P00533 with tags, fused parts or gaps INS769ASV): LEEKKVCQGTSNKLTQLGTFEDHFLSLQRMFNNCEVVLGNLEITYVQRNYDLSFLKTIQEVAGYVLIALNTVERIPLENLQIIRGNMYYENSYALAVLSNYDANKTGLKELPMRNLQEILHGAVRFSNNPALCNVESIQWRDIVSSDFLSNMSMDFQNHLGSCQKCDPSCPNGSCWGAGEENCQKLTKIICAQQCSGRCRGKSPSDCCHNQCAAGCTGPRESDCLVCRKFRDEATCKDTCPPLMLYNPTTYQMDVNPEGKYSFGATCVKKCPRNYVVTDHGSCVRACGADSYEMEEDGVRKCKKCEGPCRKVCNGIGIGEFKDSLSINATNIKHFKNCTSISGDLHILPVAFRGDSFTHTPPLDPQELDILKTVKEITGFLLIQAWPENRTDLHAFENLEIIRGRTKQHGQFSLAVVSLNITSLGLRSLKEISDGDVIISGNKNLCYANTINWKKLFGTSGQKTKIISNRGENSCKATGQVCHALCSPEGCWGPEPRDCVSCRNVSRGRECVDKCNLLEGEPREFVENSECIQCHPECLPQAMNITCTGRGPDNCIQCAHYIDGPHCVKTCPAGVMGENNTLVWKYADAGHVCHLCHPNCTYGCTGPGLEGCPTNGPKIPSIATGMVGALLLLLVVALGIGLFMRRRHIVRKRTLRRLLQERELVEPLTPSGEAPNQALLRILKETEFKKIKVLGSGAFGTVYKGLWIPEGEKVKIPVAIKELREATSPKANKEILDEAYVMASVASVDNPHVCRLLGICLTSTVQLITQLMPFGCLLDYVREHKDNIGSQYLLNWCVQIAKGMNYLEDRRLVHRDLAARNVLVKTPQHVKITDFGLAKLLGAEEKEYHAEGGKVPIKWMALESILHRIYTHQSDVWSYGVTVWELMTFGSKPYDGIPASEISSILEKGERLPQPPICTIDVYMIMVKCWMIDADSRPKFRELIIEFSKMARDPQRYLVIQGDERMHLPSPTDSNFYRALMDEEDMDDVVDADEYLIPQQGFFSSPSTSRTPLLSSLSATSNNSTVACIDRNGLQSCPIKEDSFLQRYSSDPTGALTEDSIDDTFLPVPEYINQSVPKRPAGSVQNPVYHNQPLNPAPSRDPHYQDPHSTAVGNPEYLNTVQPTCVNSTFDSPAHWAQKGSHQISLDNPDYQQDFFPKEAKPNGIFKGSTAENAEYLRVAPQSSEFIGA

Structure (SMILES) | IC50 [1] [nM] | IC50 [2] [nM] | IC50 [3] [nM] | IC50 [4] [nM] | IC50 [5] [nM] | IC50 [6] [nM] | IC50 [7] [nM]
COc1c(F)cccc1Nc1c(-c2ncnc3c2ccn3C)[nH]c2c1C(=O)NCC2 [Compound 150, 3-((3-fluoro-2-methoxyphenyl)amino)-2-(7-methyl-7H-pyrrolo[2,3-d]pyrimidin-4-yl)-1,5,6,7-tetrahydro-4H-pyrrolo[3,2-c]pyridin-4-one] | > 1000 | > 1000 | > 1000 |  |  |  | 
COc1c(F)cccc1Nc1c(-c2snc3ccccc23)[nH]c2c1C(=O)NCC2 [Compound 157, 2-(benzo[c]isothiazol-3-yl)-3-((3-fluoro-2-methoxyphenyl)amino)-1,5,6,7-tetrahydro-4H-pyrrolo[3,2-c]pyridin-4-one] | 100 to 1000 | > 1000 | > 1000 |  |  |  | 
COc1c(F)cccc1Nc1c(-c2ncnc3[nH]ncc23)[nH]c2c1C(=O)NCC2 [Compound 158, 3-((3-fluoro-2-methoxyphenyl)amino)-2-(1H-pyrazolo[3,4-d]pyrimidin-4-yl)-1,5,6,7-tetrahydro-4H-pyrrolo[3,2-c]pyridin-4-one] | > 1000 | > 1000 | 100 to 1000 |  |  |  | 
COc1c(F)cccc1Nc1c(-c2ccnc(-c3ccccc3)c2)[nH]c2c1C(=O)NCC2 [Compound 159, 3-((3-fluoro-2-methoxyphenyl)amino)-2-(2-phenylpyridin-4-yl)-1,5,6,7-tetrahydro-4H-pyrrolo[3,2-c]pyridin-4-one] | 100 to 1000 | > 1000 | > 1000 |  |  |  | 
COc1c(Cl)cccc1Nc1c(-c2ccnc(NCC(F)F)n2)[nH]c2c1C(=O)NCC2 [Compound 702, 3-[(3-chloro-2-methoxyphenyl)amino]-2-[2-[(2,2-difluoroethyl)amino]pyrimidin-4-yl]-1H,5H,6H,7H-pyrrolo[3,2-c]pyridin-4-one] | > 1000 | 100 to 1000 |  | 100 to 1000 | 100 to 1000 | 100 to 1000 | 100 to 1000
COc1c(Cl)cccc1Nc1c(-c2ccnc(NCCN(C)C)n2)[nH]c2c1C(=O)NCC2 [Compound 707, 3-((3-chloro-2-methoxyphenyl)amino)-2-(2-((2-(dimethylamino)ethyl)amino)pyrimidin-4-yl)-1,5,6,7-tetrahydro-4H-pyrrolo[3,2-c]pyridin-4-one] | > 1000 | > 1000 |  | > 1000 | > 1000 | > 1000 | > 1000
COc1cc2nccc(-c3[nH]c4c(c3Nc3cccc(F)c3C)C(=O)NCC4)c2nc1OC [Compound 808, 2-(6,7-dimethoxy-1,5-naphthyridin-4-yl)-3-[(3-fluoro-2-methylphenyl)amino]-1H,5H,6H,7H-pyrrolo[3,2-c]pyridin-4-one] | < 100 |  | < 100 |  | < 100 | < 100 | < 100
COc1c(Cl)cccc1Nc1c(-c2ccnc(NC(=O)c3cccc(F)c3)n2)[nH]c2c1C(=O)NCC2 [compound 102] | > 1000 | 100 to 1000 |  | < 100 | 100 to 1000 | 100 to 1000 | 100 to 1000
COc1c(Cl)cccc1Nc1c(-c2ccnc(NC3CC3)n2)[nH]c2c1C(=O)NCC2 [compound 112] | > 1000 | > 1000 |  | < 100 | 100 to 1000 | 100 to 1000 | 100 to 1000
Nc1nccc(-c2[nH]c3c(c2Nc2cccc(C(F)(F)F)c2)C(=O)NCC3)n1 [compound 199] | > 1000 | 100 to 1000 |  | 100 to 1000 | 100 to 1000 | > 1000 | > 1000
COc1c(Cl)cccc1Nc1c(-c2ccnc3[nH]ccc23)[nH]c2c1C(=O)NCC2 [compound 218] | > 1000 | > 1000 |  | < 100 | 100 to 1000 | 100 to 1000 | 100 to 1000
COc1nn(C)cc1Nc1nccc(-c2[nH]c3c(c2Nc2cccc(Cl)c2OC)C(=O)NCC3)n1 [compound 219] | < 100 | < 100 |  | < 100 | < 100 | < 100 | < 100
COc1c(Cl)cccc1Nc1c(-c2ccnc(NC(C)C)n2)[nH]c2c1C(=O)NCC2 [compound 225] | > 1000 | 100 to 1000 |  | 100 to 1000 | > 1000 | 100 to 1000 | 100 to 1000
COc1c(Cl)cccc1Nc1c(-c2ncnc3[nH]ccc23)[nH]c2c1C(=O)NCC2 [compound 289] | > 1000 | > 1000 |  | > 1000 | > 1000 | > 1000 | > 1000
COc1c(Cl)cccc1Nc1c(-c2ccnc3c2OCCN3)[nH]c2c1C(=O)NCC2 [compound 292] | > 1000 | 100 to 1000 |  | < 100 | 100 to 1000 | 100 to 1000 | 100 to 1000
COc1c(Cl)cccc1Nc1c(-c2nc(N)ncc2F)[nH]c2c1C(=O)NCC2 [compound 295] | > 1000 | > 1000 |  | 100 to 1000 | 100 to 1000 | > 1000 | 100 to 1000
COc1c(Cl)cccc1Nc1c(-c2ccnc(NCCF)n2)[nH]c2c1C(=O)NCC2 [compound 710, 3-[(3-chloro-2-methoxyphenyl)amino]-2-[2-[(2-fluoroethyl)amino]pyrimidin-4-yl]-1H,5H,6H,7H-pyrrolo[3,2-c]pyridin-4-one] | > 1000 | 100 to 1000 |  | < 100 | 100 to 1000 | 100 to 1000 | 100 to 1000
COc1c(Cl)cccc1Nc1c(-c2ccnc(NC[C@H]3CCCO3)n2)[nH]c2c1C(=O)NCC2 [compound 721, (R)-3-((3-chloro-2-methoxyphenyl)amino)-2-(2-(((tetrahydrofuran-2-yl)methyl)amino)pyrimidin-4-yl)-1,5,6,7-tetrahydro-4H-pyrrolo[3,2-c]pyridin-4-one] | > 1000 | > 1000 |  | 100 to 1000 | > 1000 | > 1000 | > 1000
COc1c(Cl)cccc1Nc1c(-c2ccnc(NC[C@@H]3CCCO3)n2)[nH]c2c1C(=O)NCC2 [compound 722, 3-[(3-chloro-2-methoxyphenyl)amino]-2-(2-[[(2S)-oxolan-2-ylmethyl]amino]pyrimidin-4-yl)-1H,5H,6H,7H-pyrrolo[3,2-c]pyridin-4-one] | > 1000 | > 1000 |  | 100 to 1000 | > 1000 | > 1000 | > 1000
